According to US8143263B2, “Therapeutic agents” (Astrazeneca AB, priority 2008, dated 2012):

target: T1, recombinant human pancreatic GLK (Homo sapiens, UniProt P35557); experiment: biochemical
T1 sequence (P35557 1-465): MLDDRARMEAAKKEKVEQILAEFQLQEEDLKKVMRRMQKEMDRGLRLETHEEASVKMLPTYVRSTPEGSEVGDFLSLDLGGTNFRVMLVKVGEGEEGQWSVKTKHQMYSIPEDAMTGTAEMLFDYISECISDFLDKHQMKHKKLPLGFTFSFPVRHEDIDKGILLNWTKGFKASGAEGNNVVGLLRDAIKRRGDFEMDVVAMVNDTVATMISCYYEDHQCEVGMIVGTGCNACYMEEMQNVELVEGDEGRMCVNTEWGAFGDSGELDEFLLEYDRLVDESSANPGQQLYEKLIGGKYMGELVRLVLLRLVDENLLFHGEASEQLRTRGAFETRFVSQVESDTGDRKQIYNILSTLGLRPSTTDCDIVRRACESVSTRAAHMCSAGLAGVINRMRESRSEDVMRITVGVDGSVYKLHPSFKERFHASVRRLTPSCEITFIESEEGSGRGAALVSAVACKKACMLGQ

SMILES | EC50 [nM]
CCOC[C@H](Oc1ncnc2c1cnn2-c1nccn1C)C(=O)Nc1ccc(Cl)cn1 [Example 210, (2S)—N-(5-chloropyridin-2-yl)-3-ethoxy-2-(1-(1-methyl-1H-imidazol-2-yl)-1H-pyrazolo[3,4-d]pyrimidin-4-yloxy)propanamide] | 1200
COCC(Oc1ncnc2c1cnn2-c1ccccc1OC)C(=O)Nc1ccc(C)cn1 (stereo not shown) [Example 4, 3-methoxy-2-{[1-(2-methoxyphenyl)-1H-pyrazolo[3,4-d]pyrimidin-4-yl]oxy}-N-(5-methylpyridin-2-yl)propanamide] | 3400
COCC[C@@H](Oc1ncnc2c1cnn2-c1ccc(F)cc1F)C(=O)Nc1ccc(C)cn1 [Example 26, (R)-2-{[1-(2,4-Difluorophenyl)-1H-pyrazolo[3,4-d]pyrimidin-4-yl]oxy}-4-methoxy-N-(5-methylpyridin-2-yl)butanamide] | 35000
CCOC[C@H](Oc1ncnc2c1cnn2-c1ncccc1Cl)C(=O)Nc1ccc(C)cn1 [Example 103, (2S)-2-[1-(3-Chloropyridin-2-yl)pyrazolo[4,5-e]pyrimidin-4-yl]oxy-3-ethoxy-N-(5-methylpyridin-2-yl)propanamide] | 280
COCC[C@H](Oc1ncnc2c1cnn2-c1ccccc1OC)C(=O)Nc1ccc(C)cn1 [Example 24, (S)-4-methoxy-2-{[1-(2-methoxyphenyl)-1H-pyrazolo[3,4-d]pyrimidin-4-yl]oxy}-N-(5-methylpyridin-2-yl)butanamide] | 120
COC[C@H](Oc1ncnc2c1cnn2-c1ccc(F)cc1Cl)C(=O)Nc1cnc(C)cn1 [Example 95, (2S)-2-(1-(2-chloro-4-fluorophenyl)-1H-pyrazolo[3,4-d]pyrimidin-4-yloxy)-3-methoxy-N-(5-methylpyrazin-2-yl)propanamide] | 39000
COC[C@@H](Oc1ncnc2c1cnn2-c1ccccc1OC)C(=O)Nc1ccc(C)cn1 [Example 5, (R)-3-methoxy-2-{[1-(2-methoxyphenyl)-1H-pyrazolo[3,4-d]pyrimidin-4-yl]oxy}-N-(5-methylpyridin-2-yl)propanamide] | ≥ 100000
Cc1ccc(NC(=O)[C@H](CO[C@H](C)CO)Oc2ncnc3c2cnn3-c2ncccc2Cl)nc1 [Example 232, (2S)-2-[1-(3-chloro-2-pyridyl)pyrazolo[3,4-d]pyrimidin-4-yl]oxy-3-[(1R)-2-hydroxy-1-methyl-ethoxy]-N-(5-methyl-2-pyridyl)propanamide] | 540
COCC[C@@H](Oc1ncnc2c1cnn2-c1cccc(C)c1)C(=O)Nc1ccc(C)cn1 [Example 32, (R)-4-Methoxy-2-{[1-(3-methylphenyl)-1H-pyrazolo[3,4-d]pyrimidin-4-yl]oxy}-N-(5-methylpyridin-2-yl)butanamide] | ≥ 100000
CCOC[C@H](Oc1ncnc2c1cnn2-c1ccccc1Cl)C(=O)Nc1cnc(C)cn1 [Example 105, (2S)-2-[1-(2-chlorophenyl)pyrazolo[4,5-e]pyrimidin-4-yl]oxy-3-ethoxy-N-(5-methylpyrazin-2-yl)propanamide] | 510
Cc1ccc(NC(=O)[C@H](COCCO)Oc2ncnc3c2cnn3-c2cc(C#N)ccc2C)nc1 [Example 184, (2S)-2-(1-(5-cyano-2-methylphenyl)-1H-pyrazolo[3,4-d]pyrimidin-4-yloxy)-3-(2-hydroxyethoxy)-N-(5-methylpyridin-2-yl)propanamide] | 1500
C[C@H](CO)OC[C@H](Oc1ncnc2c1cnn2-c1c(Cl)cccc1C#N)C(=O)Nc1ccc(C#N)cn1 [Example 251, (2S)-2-[1-(2-chloro-6-cyano-phenyl)pyrazolo[3,4-d]pyrimidin-4-yl]oxy-N-(5-cyano-2-pyridyl)-3-[(1R)-2-hydroxy-1-methyl-ethoxy]propanamide] | 350
Cc1ccc(NC(=O)[C@H](COC(C)C)Oc2ncnc3c2cnn3-c2cccnc2C)nc1 [Example 146, (2S)-3-isopropoxy-N-(5-methyl-2-pyridyl)-2-[1-(2-methyl-3-pyridyl)pyrazolo[4,5-e]pyrimidin-4-yl]oxy-propanamide] | 960
Cc1cccnc1NC(=O)[C@H](COC(C)C)Oc1ncnc2c1cnn2-c1ncccc1Cl [(2S)-2-[1-(3-chloro-2-pyridyl)pyrazolo[4,5-e]pyrimidin-4-yl]oxy-3-isopropoxy-N-(3-methyl-2-pyridyl)propanamide] | > 100000
C[C@@H](CO)OC[C@H](Oc1ncnc2c1cnn2-c1ncccc1Cl)C(=O)Nc1ccc(F)cn1 [Example 192, (2S)-2-(1-(3-chloropyridin-2-yl)-1H-pyrazolo[3,4-d]pyrimidin-4-yloxy)-N-(5-fluoropyridin-2-yl)-3-((S)-1-hydroxypropan-2-yloxy)propanamide] | 360
Cc1ccc(NC(=O)[C@H](CCO)Oc2ncnc3c2cnn3-c2ncccc2Cl)nc1 [Example 143, (2S)-2-[1-(3-chloro-2-pyridyl)pyrazolo[4,5-e]pyrimidin-4-yl]oxy-4-hydroxy-N-(5-methyl-2-pyridyl)butanamide] | 180

SMILES | EC50 [nM]
Cc1nsc(NC(=O)[C@H](COC(C)C)Oc2ncnc3c2cnn3-c2ccccc2Cl)n1 [Example 100, (2S)-2-[1-(2-Chlorophenyl)pyrazolo[4,5-e]pyrimidin-4-yl]oxy-N-(3-methyl-1,2,4-thiadiazol-5-yl)-3-propan-2-yloxypropanamide] | 1000
Cc1cnc(NC(=O)C(COC(C)C)Oc2ncnc3c2cnn3-c2ccccc2Cl)s1 (stereo not shown) [Example 111, 2-[1-(2-chlorophenyl)pyrazolo[4,5-e]pyrimidin-4-yl]oxy-3-isopropoxy-N-(5-methylthiazol-2-yl)propanamide] | 330
O=C(Nc1ccc(Cl)cn1)[C@H](COCCO)Oc1ncnc2c1cnn2-c1ncccc1Cl [Example 163, (2S)—N-(5-chloropyridin-2-yl)-2-(1-(3-chloropyridin-2-yl)-1H-pyrazolo[3,4-d]pyrimidin-4-yloxy)-3-(2-hydroxyethoxy)propanamide] | 580
CCCCC(Oc1ncnc2c1cnn2C)C(=O)Nc1ccc(C)cn1 (stereo not shown) [Example 39, 2-[(1-methyl-1H-pyrazolo[3,4-d]pyrimidin-4-yl)oxy]-N-(5-methylpyridin-2-yl)hexanamide] | 11000
Cc1cnc(NC(=O)[C@H](COC2CCC2)Oc2ncnc3c2cnn3-c2ncccc2C)cn1 [Example 141, (2S)-3-cyclobutoxy-N-(5-methylpyrazin-2-yl)-2-(1-(3-methylpyridin-2-yl)-1H-pyrazolo[3,4-d]pyrimidin-4-yloxy)propanamide] | 340
CCC(C)C(Sc1ncnc2c1cnn2-c1ccccc1Cl)C(=O)Nc1ccon1 (stereo not shown) [Example 55, 2-{[1-(2-chlorophenyl)-1H-pyrazolo[3,4-d]pyrimidin-4-yl]thio}-N-isoxazol-3-yl-3-methylpentanamide] | > 20000
CCOC[C@H](Oc1ncnc2c1cnn2-c1ncccc1Cl)C(=O)Nc1cnc(C)cn1 [Example 104, (2S)-2-[1-(3-Chloropyridin-2-yl)pyrazolo[4,5-e]pyrimidin-4-yl]oxy-3-ethoxy-N-(5-methylpyrazin-2-yl)propanamide] | 1200
Cc1ccc(NC(=O)[C@H](COC(C)C)Oc2ncnc3c2cnn3-c2ccccc2S(C)(=O)=O)nc1 [Example 129, (2S)-3-isopropoxy-N-(5-methylpyridin-2-yl)-2-(1-(2-(methylsulfonyl)phenyl)-1H-pyrazolo[3,4-d]pyrimidin-4-yloxy)propanamide] | 1300
Cc1ccc(NC(=O)[C@H](COC(C)C)Oc2ncnc3c2cnn3-c2cnccc2C)nc1 [Example 148, (2S)-3-isopropoxy-N-(5-methyl-2-pyridyl)-2-[1-(4-methyl-3-pyridyl)pyrazolo[4,5-e]pyrimidin-4-yl]oxy-propanamide] | 930
COC[C@H](C)OC[C@H](Oc1ncnc2c1cnn2-c1ccccc1Cl)C(=O)Nc1ccc(C)cn1 [Example 152, (2S)-2-(1-(2-chlorophenyl)-1H-pyrazolo[3,4-d]pyrimidin-4-yloxy)-3-((S)-1-methoxypropan-2-yloxy)-N-(5-methylpyridin-2-yl)propanamide] | 490
Cc1cnc(NC(=O)[C@H](COC2CCC2)Oc2ncnc3c2cnn3-c2ccncc2C)cn1 [Example 136, (2S)-3-cyclobutyloxy-N-(5-methylpyrazin-2-yl)-2-[1-(3-methylpyridin-4-yl)pyrazolo[4,5-e]pyrimidin-4-yl]oxypropanamide] | 2100
Cc1cnc(NC(=O)[C@H](COC2CCC2)Oc2ncnc3c2cnn3-c2ccccc2)cn1 [Example 142, (S)-3-cyclobutoxy-N-(5-methylpyrazin-2-yl)-2-(1-phenyl-1H-pyrazolo[3,4-d]pyrimidin-4-yloxy)propanamide] | 2400
COCCC(Oc1ncnc2c1cnn2-c1ccccc1Cl)C(=O)Nc1ccc(C)cn1 (stereo not shown) [Example 19, 2-{[1-(2-Chlorophenyl)-1H-pyrazolo[3,4-d]pyrimidin-4-yl]oxy}-4-methoxy-N-(5-methylpyridin-2-yl)butanamide] | 95
O=C(Nc1ccccn1)[C@H](CCO)Oc1ncnc2c1cnn2-c1ncccc1Cl [Example 143c, (2S)-2-[1-(3-chloro-2-pyridyl)pyrazolo[4,5-e]pyrimidin-4-yl]oxy-4-hydroxy-N-(2-pyridyl)butanamide] | 610
Cc1ccc(NC(=O)[C@H](COCCO)Oc2ncnc3c2cnn3-c2cccc(Cl)c2C)nc1 [Example 167, (2S)-2-[1-(3-chloro-2-methylphenyl)pyrazolo[4,5-e]pyrimidin-4-yl]oxy-3-(2-hydroxyethoxy)-N-(5-methylpyridin-2-yl)propanamide] | 1100
